# Key:
# Assay type in all cases: in vivo
# [1] = test system: ivy-leaved morning glory (Ipomoea hederacea); test: Test G Post-Emergence Protocol; settings: Ipomoea, post-emergence, 312 h, read-out: Morningglory, Ivy-leaved damage rating
# Method in brief: (§1)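 Values are percent visual injury at 13 days after treatment (0 none, 100 total). Treatment was a post-emergence spray at 15.625, 62.5 or 250 g/ha on 8-day-old pot plants kept at 24/16 °C.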
# [2] = test system: redroot pigweed (Amaranthus retroflexus); test: Test G Post-Emergence Protocol; settings: Amaranthus retroflexus, post-emergence, 312 h, read-out: Pigweed, Redroot damage rating
# Method in brief: as §1
# [3] = test system: velvetleaf (Abutilon theophrasti); test: Test G Post-Emergence Protocol; settings: Abutilon theophrasti, post-emergence, 312 h, read-out: Velvetleaf damage rating
# Method in brief: as §1
# [4] = test system: giant foxtail (Setaria faberi); test: Test G Post-Emergence Protocol; settings: Setaria faberi, post-emergence, 312 h, read-out: Foxtail, Giant damage rating
# Method in brief: as §1
# corn (Zea mays) [5] = test: Test G Post-Emergence Protocol; settings: Zea mays, post-emergence, 312 h, read-out: Corn damage rating
# Method in brief: as §1
# [6] = test system: barnyardgrass (Echinochloa crus-galli); test: Test G Post-Emergence Protocol; settings: Echinochloa crus-galli, post-emergence, 312 h, read-out: Barnyardgrass damage rating
# Method in brief: as §1
# [7] = test system: ivy-leaved morning glory (Ipomoea hederacea); test: Test G Pre-Emergence Protocol; settings: Ipomoea, pre-emergence, 312 h, evaluated after 13 days
# Method in brief: (§2)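 Pots of seeds in standard soil were grown for one day in a glasshouse (24/16 °C day/night, 14 h light, 65% humidity), then sprayed with compound in acetone/water 50:50 with 0.5% Tween 20 at 15.625, 62.5 or 250 g/ha. Damage was scored after 13 days on a 0 (none) to 100 (total) scale.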
# [8] = test system: redroot pigweed (Amaranthus retroflexus); test: Test G Pre-Emergence Protocol; settings: Amaranthus retroflexus, pre-emergence, 312 h, evaluated after 13 days
# Method in brief: as §2
# [9] = test system: velvetleaf (Abutilon theophrasti); test: Test G Pre-Emergence Protocol; settings: Abutilon theophrasti, pre-emergence, 312 h, evaluated after 13 days
# Method in brief: as §2
# [10] = test system: giant foxtail (Setaria faberi); test: Test G Pre-Emergence Protocol; settings: Setaria faberi, pre-emergence, 312 h, evaluated after 13 days
# Method in brief: as §2
# corn (Zea mays) [11] = test: Test G Pre-Emergence Protocol; settings: Zea mays, pre-emergence, 312 h, evaluated after 13 days
# Method in brief: as §2
# [12] = test system: barnyardgrass (Echinochloa crus-galli); test: Test G Pre-Emergence Protocol; settings: Echinochloa crus-galli, pre-emergence, 312 h, evaluated after 13 days
# Method in brief: as §2
# [13] = 15.625 g ai/ha, evaluated after 13 days (100=total damage to plant; 0=no damage to plant)
# [14] = 62.5 g ai/ha, evaluated after 13 days, 100=total damage to plant, 0=no damage to plant
# [15] = 250 g ai/ha, evaluated after 13 days, 100=total damage to plant, 0=no damage to plant
smiles,measurement,setting,value
CN1CC(c2ccc(F)c(OCC(F)(F)F)c2)C(C(=O)Nc2cccc(F)c2F)C1=O (stereo not drawn) [Compound 1718],pest or weed control at 15.625 g/ha,[1]; [13],10%
same,pest or weed control at 62.5 g/ha,[1]; [14],60%
same,pest or weed control at 250 g/ha,[1]; [15],70%
same,pest or weed control at 15.625 g/ha,[2]; [13],30%
same,pest or weed control at 62.5 g/ha,[2]; [14],40%
same,pest or weed control at 250 g/ha,[2]; [15],70%
same,pest or weed control at 15.625 g/ha,[3]; [13],20%
same,pest or weed control at 62.5 g/ha,[3]; [14],40%
same,pest or weed control at 250 g/ha,[3]; [15],60%
same,pest or weed control at 15.625 g/ha,[4]; [13],70%
same,pest or weed control at 62.5 g/ha,[4]; [14],80%
same,pest or weed control at 250 g/ha,[4]; [15],80%
same,plant injury at 15.625 g/ha,corn (Zea mays) [5]; [13],30%
same,plant injury at 62.5 g/ha,corn (Zea mays) [5]; [14],50%
same,plant injury at 250 g/ha,corn (Zea mays) [5]; [15],80%
same,pest or weed control at 15.625 g/ha,[6]; [13],50%
same,pest or weed control at 62.5 g/ha,[6]; [14],70%
same,pest or weed control at 250 g/ha,[6]; [15],80%
same,pest or weed control at 15.625 g/ha,"[7]; 15.625 g ai/ha, read-out: Morningglory, Ivy-leaved damage rating (100=total damage to plant; 0=no damage to plant)",0%
same,pest or weed control at 62.5 g/ha,"[7]; 62.5 g ai/ha, 100=total damage to plant, 0=no damage to plant, read-out: Morningglory, Ivy-leaved damage rating",0%
same,pest or weed control at 250 g/ha,"[7]; 250 g ai/ha, read-out: Morningglory, Ivy-leaved damage rating (100=total damage to plant; 0=no damage to plant)",10%
same,pest or weed control at 15.625 g/ha,"[8]; 15.625 g ai/ha, read-out: Pigweed, Redroot damage rating (100=total damage to plant; 0=no damage to plant)",0%
same,pest or weed control at 62.5 g/ha,"[8]; 62.5 g ai/ha, 100=total damage to plant, 0=no damage to plant, read-out: Pigweed, Redroot damage rating",0%
same,pest or weed control at 250 g/ha,"[8]; 250 g ai/ha, read-out: Pigweed, Redroot damage rating (100=total damage to plant; 0=no damage to plant)",60%
same,pest or weed control at 15.625 g/ha,"[9]; 15.625 g ai/ha, read-out: Velvetleaf damage rating (100=total damage to plant; 0=no damage to plant)",0%
same,pest or weed control at 62.5 g/ha,"[9]; 62.5 g ai/ha, 100=total damage to plant, 0=no damage to plant, read-out: Velvetleaf damage rating",0%
same,pest or weed control at 250 g/ha,"[9]; 250 g ai/ha, read-out: Velvetleaf damage rating (100=total damage to plant; 0=no damage to plant)",50%
same,pest or weed control at 15.625 g/ha,"[10]; 15.625 g ai/ha, read-out: Foxtail, Giant damage rating (100=total damage to plant; 0=no damage to plant)",60%
same,pest or weed control at 62.5 g/ha,"[10]; 62.5 g ai/ha, 100=total damage to plant, 0=no damage to plant, read-out: Foxtail, Giant damage rating",80%
same,pest or weed control at 250 g/ha,"[10]; 250 g ai/ha, read-out: Foxtail, Giant damage rating (100=total damage to plant; 0=no damage to plant)",90%
same,plant injury at 15.625 g/ha,"corn (Zea mays) [11]; 15.625 g ai/ha, read-out: Corn damage rating (100=total damage to plant; 0=no damage to plant)",0%
same,plant injury at 62.5 g/ha,"corn (Zea mays) [11]; 62.5 g ai/ha, 100=total damage to plant, 0=no damage to plant, read-out: Corn damage rating",50%
same,plant injury at 250 g/ha,"corn (Zea mays) [11]; 250 g ai/ha, read-out: Corn damage rating (100=total damage to plant; 0=no damage to plant)",80%
same,pest or weed control at 15.625 g/ha,"[12]; 15.625 g ai/ha, read-out: Barnyardgrass damage rating (100=total damage to plant; 0=no damage to plant)",60%
same,pest or weed control at 62.5 g/ha,"[12]; 62.5 g ai/ha, 100=total damage to plant, 0=no damage to plant, read-out: Barnyardgrass damage rating",70%
same,pest or weed control at 250 g/ha,"[12]; 250 g ai/ha, read-out: Barnyardgrass damage rating (100=total damage to plant; 0=no damage to plant)",90%
